Experimental data taken from article PMC8879119, “α-Glucosidase Inhibitory Activity and Anti-Adipogenic Effect of Compounds from Dendrobium delacourii” (Molecules, 2022).
Where two headings read alike, the source gives them in different places.

Columns and labels:
α-glucosidase [1] = target: T1, α-glucosidase (Saccharomyces cerevisiae, UniProt P53341); experiment: biochemical
T1 construct: purchased Sigma-Aldrich (St. Louis, MO, USA)
Procedure: In this study, each compound was initially tested at 100 μg/mL.
(§1) Mass spectra were recorded on a Bruker micro TOF mass spectrometer (ESI-MS). NMR spectra were recorded on a Bruker Avance DPX-300FT-NMR spectrometer or a Bruker Avance III HD 500 NMR spectrometer. Vacuum-liquid column chromatography (VLC) and column chromatography (CC) were performed on silica gel 60 (Merck, Kieselgel 60, 70–320 mesh), silica gel 60 (Merck, Kieselgel 60, 230–400 mesh) (Darmstadt, Germany), and Sephadex LH-20 (25–100 μm, Pharmacia Fine Chemical Co. Ltd.) (Piscataway, NJ, USA). […] Mouse embryonic preadipocyte 3T3-L1 cells were acquired from the American Type Culture Collection (ATCC, Manassas, VA, USA). Dulbecco’s modified Eagle medium (DMEM), fetal bovine serum (FBS), penicillin/streptomycin, and L-glutamine were obtained from Gibco (Gaithersburg, MA, USA). Yeast alpha-glucosidase enzyme, p-nitrophenol-α-D-glucopyranoside, isobutylmethylxanthine, dexamethasone, MTT (methyl-thiazolyl-diphenyl-tetrazolium bromide), Hoechst33342, propidium iodide, dimethylsulfoxide (DMSO), and oil red O were purchased from Sigma-Aldrich (St. Louis, MO, USA). Insulin was obtained from Himedia (Mumbai, India). The radio-immunoprecipitation assay (RIPA) buffer, chemiluminescent substrates, and the bicinchoninic acid (BCA) protein assay kit were from Thermo Scientific (Rockford, IL, USA), and the nitrocellulose membranes were from Bio-Rad Laboratories (Hercules, CA, USA). All primary and secondary antibodies were purchased from Cell Signaling Technology (Danvers, MA, USA). Oxyresveratrol was provided by Prof. Kittisak Likhitwitayawuid.
The assay was based on the inhibition in the sample of α-glucosidase enzyme, which can release p-nitrophenol (PNP) from p-nitrophenyl-α-D-glucoside (PNPG) by hydrolysis. […] For IC50 determination, twofold serial dilution was performed for each sample. Each experiment was accomplished in triplicate. Data are expressed as mean ± SD.

α-glucosidase [2] = target: T1, α-glucosidase; experiment: biochemical; type: biochemical; conditions: for type of enzyme inhibition: Lineweaver–Burk plots; for Ki: from secondary plot of slopes versus inhibitor concentration, read-out: Ki (inhibitor constant)
Procedure: The experiment was performed by using Lineweaver–Burk plots of the reciprocal of velocity (1/V) against the reciprocal of substrate concentration (1/[S]) (Figure 2). […] A secondary plot of each compound was then constructed to evaluate the inhibition constant (Ki).
as §1
The kinetic study of enzyme inhibition was analyzed by the double reciprocal Lineweaver–Burk plot (1/V versus 1/[S]). […] The reaction was monitored every 5 min for a total time of 25 min and measured at 405 nm by a microplate reader. Each experiment was performed in triplicate. The Ki value was estimated by constructing a secondary plot which is plotted by the slopes of the double-reciprocal lines versus inhibitor concentration.

3T3-L1 cells [3] = experiment: adipocyte differentiation / lipid accumulation by oil red O staining; type: cell-based, Mouse; conditions: for IC50: Mus musculus, 3T3-L1, 0–50 µM, oil red O staining, 3T3-L1 cells; for reduction in oil red O staining: differentiated 3T3-L1 cells
Procedure: Mouse embryonic preadipocyte 3T3-L1 cells were cultured in DMEM containing 10% FBS, 100 units/mL of penicillin/streptomycin, and 2 mmol/L of L-glutamine under humidified conditions of 5% CO2 at 37 °C until 70–80% confluence was reached. For differentiation into adipocyte, preadipocyte 3T3-L1 cells were incubated with differentiation media composed of 10% FBS, 0.5 mM isobutylmethylxanthine, 1 μM dexamethasone, and 5 µg/mL insulin in DMEM with or without test compound for 2 days. Then, the differentiation media was replaced with culture media containing 5 µg/mL of insulin. After further incubation for 2 days, the cells were maintained in complete DMEM, which was changed every 2 days until adipocytes containing lipid droplets were observed under microscope.
The lipid droplets presenting in differentiated adipocytes were detected via oil red O staining. After the differentiation process, 3T3-L1 cells were fixed with 10% formalin for 45 min and further incubated with oil red O solution at room temperature for 1 h. After washing with 60% isopropanol for three times, oil red O-stained cells were captured using a Nikon Ts2 inverted optical microscope (Tokyo, Japan). For quantification, cellular oil red O was extracted using absolute isopropanol for measurement of OD at 570 nm by microplate reader (Anthros, Durham, NC, USA). The percentage of oil red O staining was calculated relative to the total protein content determined by BCA assay.

3T3-L1 cells [4] = experiment: MTT viability assay in preadipocytes; type: cell-based, Mouse; conditions: 20 µM, 48 h
Procedure: To evaluate the effect of D. delacourii extracts on cell viability, 3T3-L1 preadipocytes were seeded into 96-well plates at density of 2 × 10^3 cells/well and allowed to attach overnight at 37 °C. Then, the cells were further cultured with extracts (5 μg/mL), compounds (20 μM), or left untreated for 48 h before adding of 0.45 mg/mL MTT solution to assess cell viability. After incubation for 3 h at 37 °C and kept from light, the optical density (OD) of the purple formazan product dissolved in DMSO was measured at 570 nm using a microplate reader (Anthros, Durham, NC, USA). The relative OD ratio of treated to non-treated cells was presented as percentage cell viability.

PPARγ = experiment: Western blot of PPARγ in differentiating 3T3-L1 cells; type: cell-based, Mouse; conditions: 20 µM, 38 h and 48 h, versus untreated control
Procedure: (§2) Adipogenesis involves a network of transcription factors that contribute to adipocyte differentiation and lipid accumulation. Although the adipogenic gene CCAAT-enhancer-binding protein beta (C/EBPβ) is expressed soon after exposure to the adipogenic inducers, the upregulation of PPARγ and C/EBPα is acquired after 36–48 h of the induction. In this regard, the translational level of PPARγ and C/EBPα was examined to elucidate the anti-adipogenic mechanism in preadipocyte 3T3-L1 cells cultured with 20 µM densifloral B (3) at both early (38 h) and late (48 h) stage. Western blot analysis indicated the prolong expression of PPARγ and C/EBPα, the adipogenic transcription factors, in 3T3-L1 cells from early until late stage of adipogenic process. […]
(§3) After the indicated treatment, 3T3-L1 cells were washed with phosphate-buffered saline (PBS, pH 7.4), then the cell membranes were broken using RIPA buffer supplemented with a protease inhibitor cocktail. After incubation on ice for 45 min, the cell lysates were centrifuged at 12,000 rpm at 4 °C for 15 min to collect the clear supernatant containing cellular protein, which was measured for total protein content using a BCA assay kit. […] The reactive protein signals exposed with chemiluminescent substrates were captured and quantified using Chemiluminescent ImageQuant LAS 4000 (GE Healthcare Bio-Sciences AB, Björkgatan, Uppsala, Sweden).

C/EBPα = experiment: Western blot of C/EBPα in differentiating 3T3-L1 cells; type: cell-based, Mouse; conditions: 20 µM, 38 h and 48 h, versus untreated control
Procedure: as §2, §3

p-AMPKα = experiment: Western blot of p-AMPKα in differentiating 3T3-L1 cells; type: cell-based, Mouse; conditions: 20 µM, 38 h and 48 h
Description: (§4) Recent reports indicate that the downregulation of PPARγ and C/EBPα are correlated with the activation of AMPKα/β and ACC [43]. […] The increased expression level of p-ACC/ACC (Figure 5b), p-AMPKα/AMPKα (Figure 5c), and p-AMPKβ1/AMPKβ1/2 (Figure 5f) was correlated with suppression of PPARγ and C/EBPα protein expression (Figure 4e) as well as lipid accumulation in differentiated 3T3-L1 cells (Figure 4a). The results presented in this study correspond with the evidence of the stimulation of AMPK and ACC protein being associated with the inhibition of 3T3-L1 adipocyte differentiation.
as §3, with “kit. The total protein (30 µg) from each sample was loaded and separated onto 10% sodium dodecyl sulfate-polyacrylamide gel electrophoresis (SDS-PAGE).” for “kit.”

p-AMPKβ1 = experiment: Western blot of p-AMPKβ1 in differentiating 3T3-L1 cells; type: cell-based, Mouse; conditions: 20 µM, 38 h and 48 h
Description: as §4
as §3, with “kit. The total protein (30 µg) from each sample was loaded and separated onto 10% sodium dodecyl sulfate-polyacrylamide gel electrophoresis (SDS-PAGE).” for “kit.”

p-ACC = experiment: Western blot of p-ACC in differentiating 3T3-L1 cells; type: cell-based, Mouse; conditions: 20 µM, 38 h and 48 h
Description: as §4
as §3, with “kit. The total protein (30 µg) from each sample was loaded and separated onto 10% sodium dodecyl sulfate-polyacrylamide gel electrophoresis (SDS-PAGE).” for “kit.”

p-Akt = experiment: Western blot of p-Akt in differentiating 3T3-L1 cells; type: cell-based, Mouse; conditions: 20 µM, 38–48 h
Description: as §4
as §3, with “kit. The total protein (30 µg) from each sample was loaded and separated onto 10% sodium dodecyl sulfate-polyacrylamide gel electrophoresis (SDS-PAGE).” for “kit.”

p-GSK3β/GSK3β = experiment: Western blot of p-GSK3β/GSK3β in differentiating 3T3-L1 cells; type: cell-based, Mouse; conditions: 20 µM, 38–48 h
Description: Due to the expression of adipogenic transcription factors also modulated via Akt/GSK3β [46, 47, 48], the alteration of the p-GSK3β/GSK3β level was additionally examined in densifloral B-treated 3T3-L1 cells. The phosphorylation by p-Akt results in the inactivation of the GSK3β degradation complex following the initiation of targeted gene expression.
as §3, with “kit. The total protein (30 µg) from each sample was loaded and separated onto 10% sodium dodecyl sulfate-polyacrylamide gel electrophoresis (SDS-PAGE).” for “kit.”

3T3-L1 cells [5] = experiment: cell death detection by Hoechst33342/propidium iodide costaining; type: cell-based; conditions: 20 µM, 48 h
Procedure: The cytotoxicity of D. delacourii extracts was confirmed via cell death detection using costaining of Hoechst33342 and propidium iodide. After 48 h incubation with indicated treatment, the cells were further incubated with nuclear staining solution containing 2 μg/mL of Hoechst33342 and 1 μg/mL of propidium iodide for 30 min. The mode of cell death was observed under a fluorescence microscope (Olympus IX51 with DP70, Olympus Corp., Shinjuku-ku, Tokyo, Japan).

[6] = read-out: α-Glucosidase inhibitory activity IC50
[7] = inhibitor dose 12 μM, substrate 0.25-2.0 mM

T1 sequence (P53341 whole entry): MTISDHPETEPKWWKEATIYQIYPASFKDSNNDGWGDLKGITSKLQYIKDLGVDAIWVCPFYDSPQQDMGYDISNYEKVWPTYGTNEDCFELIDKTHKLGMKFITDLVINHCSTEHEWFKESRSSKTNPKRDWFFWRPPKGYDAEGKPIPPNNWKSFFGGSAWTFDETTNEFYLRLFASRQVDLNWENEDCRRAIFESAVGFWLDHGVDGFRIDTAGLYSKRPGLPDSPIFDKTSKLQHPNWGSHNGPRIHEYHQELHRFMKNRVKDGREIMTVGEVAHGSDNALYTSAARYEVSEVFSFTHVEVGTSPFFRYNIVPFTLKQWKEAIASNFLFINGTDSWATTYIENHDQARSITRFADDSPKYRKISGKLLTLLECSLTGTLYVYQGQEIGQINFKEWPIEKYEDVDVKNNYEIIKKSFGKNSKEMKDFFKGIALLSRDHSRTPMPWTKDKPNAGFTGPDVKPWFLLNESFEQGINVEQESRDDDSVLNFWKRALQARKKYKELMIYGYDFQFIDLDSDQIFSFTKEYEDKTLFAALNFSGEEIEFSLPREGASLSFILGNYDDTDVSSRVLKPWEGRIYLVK

COc1cc(O)c2c(c1-c1c(OC)cc(O)c3c1CCc1cc(O)ccc1-3)CCc1cc(O)ccc1-2 [4,4′,7,7′-tetrahydroxy-2,2′-dimethoxy-9,9′,10,10′-tetrahydro-1,1′-biphenanthrene]
IC50 (α-glucosidase [1]): 18.4 ± 3.4 µM

C[C@H]1O[C@H](O[C@H]2[C@H](O)[C@@H](O)[C@@H](O[C@H]3[C@H](O)[C@@H](O)C(O)O[C@@H]3CO)O[C@@H]2CO)[C@H](O)[C@@H](O)[C@@H]1N[C@H]1C=C(CO)[C@@H](O)[C@H](O)[C@H]1O (some centres unmarked) [Acarbose, acarbose, reference compound]
type of enzyme inhibition (α-glucosidase [2]): competitive type of inhibition
Km (α-glucosidase [2]; inhibitor dose 465 μM): 4.17 mM
Vmax (α-glucosidase [2]; inhibitor dose 465 μM): 0.10 ∆OD/min
Km (α-glucosidase [2]; inhibitor dose 930 μM): 6.47 mM
Vmax (α-glucosidase [2]; inhibitor dose 930 μM): 0.11 ∆OD/min

COC1=CC(=O)c2c(ccc3cc(O)ccc23)C1=O [Densifloral B (3), densifloral B]
IC50 (3T3-L1 cells [3]): 14.8 ± 1.6 µM
reduction in oil red O staining (3T3-L1 cells [3]; at 20 µM): ~65.2%
viability / cytotoxicity in 3T3-L1 cells (3T3-L1 cells [4]): no cytotoxicity
expression level of PPARγ (PPARγ): restrained
expression level of C/EBPα (C/EBPα): restrained
phosphorylated AMPKα (p-AMPKα) (p-AMPKα): upregulated
phosphorylated AMPKβ1 (p-AMPKβ1) (p-AMPKβ1): upregulated
phosphorylated ACC (p-ACC) (p-ACC): upregulated
activated Akt (p-Akt) (p-Akt): suppressed
p-GSK3β/GSK3β expression level (p-GSK3β/GSK3β): significantly lessened

COC1=CC(=O)C2=C(CCc3cc(O)ccc32)C1=O [Ephemeranthoquinone (2), ephemeranthoquinone]
reduction in oil red O staining (3T3-L1 cells [3]; at 20 µM): approximately 64.7%
viability / cytotoxicity in 3T3-L1 cells (3T3-L1 cells [4]): significantly decreased viability

COc1cc(O)cc(CCc2ccc(O)c(OC)c2)c1 [Gigantol (6), gigantol]
IC50 (α-glucosidase [1]; [6]): 191 ± 6.8 µM

COc1cc(O)c2c(c1)CCc1cc(O)ccc1-2 [Lusianthridin (8), lusianthridin]
IC50 (α-glucosidase [1]; [6]): 195 ± 9.6 µM

COc1cc(O)cc2ccc3cccc(O)c3c12 [Moscatin (4), moscatin]
IC50 (α-glucosidase [1]; [6]): 390 ± 9.8 µM

COc1cc(O)c2c(c1)CCc1cc(O)c(-c3c(OC)cc(O)c4c3CCc3cc(O)ccc3-4)cc1-2 [Phoyunnanin C (11), phoyunnanin C]
IC50 (α-glucosidase [1]; [6]): 12.6 ± 0.9 µM
type of enzyme inhibition (α-glucosidase [2]): non-competitive
Ki (α-glucosidase [2]): 5.97 µM
Vmax (α-glucosidase [2]; [7]): 0.049 ∆OD/min
Vmax (α-glucosidase [2]; inhibitor dose 24 μM, substrate 0.25-2.0 mM): 0.023 ∆OD/min

COc1cc(O)c2c(c1)CCc1cc(Oc3c(OC)cc(O)c4c3CCc3cc(O)ccc3-4)ccc1-2 [Phoyunnanin E (10), phoyunnanin E]
IC50 (α-glucosidase [1]; [6]): 8.9 ± 0.8 µM
type of enzyme inhibition (α-glucosidase [2]): non-competitive
Ki (α-glucosidase [2]): 5.89 µM
Vmax (α-glucosidase [2]; [7]): 0.049 ∆OD/min
Vmax (α-glucosidase [2]; inhibitor dose 22 μM, substrate 0.25-2.0 mM): 0.024 ∆OD/min

Oc1cc(O)cc(/C=C/c2ccc(O)cc2O)c1 [oxyresveratrol, reference compound]
IC50 (3T3-L1 cells [3]): 21.1 ± 1.5 µM
oil red O staining percentage compared with control (in words) (3T3-L1 cells [3]; at 20 µM): lower oil red O staining percentage
viability / cytotoxicity in 3T3-L1 cells (3T3-L1 cells [4]): no change
cell death (3T3-L1 cells [5]): no change
